Patent US20260207577A1, “METHODS OF USING FACTOR B INHIBITORS” (priority 2023, published 2026)

Experiments:
Format in all cases: in vivo, human
native C3G patients = experiment: Phase 2 study CLNP023X2202, proteinuria and renal function; conditions: native C3G patients (N=16), final dose levels of 200 mg b.i.d.
Procedure: (§1) The proposed iptacopan dose of 200 mg b.i.d. is considered appropriate based on data from the Phase 2 study, CLNP023X2202. […] Thus, the 200 mg b.i.d. dose of iptacopan appears to produce maximum changes in all of the complement biomarkers that have been evaluated to date in C3G patients.

[1] = tested on: alternative complement pathway; experiment: Phase 2 study CLNP023X2202, complement biomarkers
Procedure: as §1

[2] = tested on: native kidney C3G patients; experiment: Phase 2 study CLNP023X2202, safety and tolerability
Procedure: as §1

SMILES: CCO[C@H]1CCN(Cc2c(OC)cc(C)c3[nH]ccc23)[C@H](c2ccc(C(=O)O)cc2)C1 [iptacopan, 4-((2S,4S)-(4-ethoxy-1-((5-methoxy-7-methyl-1H-indol-4-yl)methyl)piperidin-2-yl))benzoic acid]
- renal function (SCR, CrCl, eGFR) (native C3G patients): stabilization of renal function
- reduction in UPCR from baseline to Week 12 (native C3G patients; two-sided p=0.0003): 45%
- C3 levels, dose dependence ([1]; 16 native C3G patients): increased dose-dependently
- dose at which maximum decreases in plasma Bb, plasma sC5b-9 and urine sC5b-9 were obtained ([1]; 16 native C3G patients): 100 mg b.i.d.
- dose at which maximum decreases in the Wieslab assay and increases in C3 were observed ([1]; 16 native C3G patients): 200 mg b.i.d.
- sC5b-9, Bb, the Wieslab assay and urine sC5b-9, dose dependence ([1]; 16 native C3G patients): decreased dose-dependently
- plasma Bb, plasma and urine sC5b-9 ([1]; Cohort A): reduction
- Wieslab activity ([1]; at 200 mg b.i.d): full inhibition
- serum C3 levels ([1]; both cohorts): overall normalization
- inhibition of alternative complement pathway ([1]; both cohorts, upon iptacopan treatment): Dose-dependent, profound and sustained inhibition
- changes in hematology, biochemistry, urinalysis, vital signs or ECG parameters ([2]; in vivo): no notable changes
- discontinuations due to adverse events ([2]; in vivo): no definitive discontinuations due to adverse events
- tolerability ([2]; in vivo): well tolerated without unexpected or new safety findings
- deaths or serious adverse events during the treatment period ([2]; native kidney C3G patients): no deaths or serious adverse events were observed
